Results from PubChem BioAssay (NCI).
Values after ≈ are worked out from the molar mass of the structure shown.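 96-well plates; 48 h exposure; 5 concentrations. Endpoints by linear interpolation between flanking doses. Not reached: highest tested concentration assigned. Here, GI50 denotes the concentration required for 50% inhibition of growth. TGI is the concentration that stops growth completely.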

Key:
Experiment in all cases: NCI-60 cell line screen, 48 h
[1] = tested on: MOLT-4 leukemia
[2] = tested on: OVCAR-5 ovarian
[3] = tested on: HCC-2998 colon
[4] = tested on: SK-MEL-28 melanoma
[5] = tested on: HCT-116 colon
[6] = tested on: UACC-257 melanoma
[7] = tested on: OVCAR-8 ovarian
[8] = tested on: PC-3 prostate
[9] = tested on: NCI-H522 lung
[10] = tested on: NCI-H226 lung

| Compound | TGI [1] | TGI [2] | TGI [3] | TGI [4] | TGI [5] | TGI [6] | TGI [7] | TGI [8] | TGI [9] | TGI [10] | GI50 [2] | GI50 [3] | GI50 [10] | GI50 [6] |
| --- | --- | --- | --- | --- | --- | --- | --- | --- | --- | --- | --- | --- | --- | --- |
| Cc1ccc2c(c1)CC1(Cc3cc(C)ccc3C1=O)C2=O | > 100 µM | > 100 µM | > 100 µM | > 100 µM | > 100 µM | > 100 µM | > 100 µM | > 100 µM | > 100 µM |  |  |  |  |  |
| CCn1c(=O)c2nc(SC)sc2n(-c2ccccc2)c1=S | > 100 µM | > 100 µM | > 100 µM | > 100 µM | > 100 µM | > 100 µM | > 100 µM | > 100 µM | > 100 µM | > 100 µM |  |  |  |  |
| COc1cc2c(cc1C)NC(=O)/C2=C/c1c(Cl)[nH]c2ccccc12 | 31.3 µM | 24.4 µM | 15.4 µM | 20.8 µM | 17 µM | 22.8 µM | 26.4 µM | 18.3 µM | 20.5 µM |  |  |  |  |  |
| CC(NC(CC12CC3CC(CC(C3)C1)C2)C(N)=O)c1ccccc1 (stereo unspecified) | 39.6 µM | 42.5 µM | 40.7 µM | 40.4 µM | 42.2 µM | 41.8 µM | 64.4 µM | > 100 µM | 47.5 µM |  |  |  |  |  |
| COC(=O)c1sc2c(c1C(=O)OC)C(=Nc1ccc(OC)cc1)SC2=Nc1ccc(OC)cc1 | 0.494 µM | 3.55 µM | 3.17 µM | 2.85 µM | 1.58 µM | 2.75 µM | 2.32 µM | 1.04 µM | 2.45 µM | 3.55 µM |  |  |  |  |
| C=CCCCCCCCCCOC1C=CC(O)C(CO)O1 (stereo unspecified) | 86.7 µM | > 100 µM | > 100 µM | > 100 µM | > 100 µM | 61.4 µM | 37.4 µM | 86.4 µM | > 100 µM | > 100 µM |  |  |  |  |
| Cc1n[nH]c(=O)c2c3c([nH]c12)-c1ccccc1C3 | > 100 µM | > 100 µM |  | > 100 µM | > 100 µM | > 100 µM | > 100 µM | > 100 µM | > 100 µM | > 100 µM |  |  |  |  |
| CCc1nnc2sc(-c3ccc(-c4ccccc4[N+](=O)[O-])o3)nn12 | 62.8 µM | > 100 µM | > 100 µM |  | > 100 µM | > 100 µM | > 100 µM | > 100 µM | > 100 µM | 44 µM |  |  |  |  |
| COc1ccc(Cl)cc1NC(=O)O/N=C(\Cl)C(C)C | 6.11 µM | 34.2 µM | 35.7 µM | 42.9 µM | 45.5 µM | 35.9 µM | 32.7 µM | 32.3 µM | 2.46 µM | 33.2 µM |  |  |  |  |
| N#CC1=C(N)OC2=C(CCCc3ccc([N+](=O)[O-])cc32)C1c1ccc(Cl)cc1 (stereo unspecified) | 93.1 µM | > 100 µM | 52.3 µM | > 100 µM | 12.5 µM | > 100 µM | 62.6 µM | > 100 µM | 31.7 µM | 76.3 µM |  |  |  |  |
| N#CCCN(C(=O)Nc1ccc(NC(=O)N(CCC#N)c2ccccc2)cc1)c1ccccc1 | > 100 µM | > 100 µM | > 100 µM | > 100 µM | > 100 µM |  | > 100 µM | > 100 µM | > 100 µM | > 100 µM |  |  |  |  |
| CC(=O)OC1CCC2(C)C(CCC3C2CCC2(C)C(c4ccc(=O)oc4)C(OC(C)=O)CC32O)C1 (stereo unspecified) | 0.0227 µM | 0.173 µM | 0.153 µM | 0.497 µM | 0.036 µM | 0.115 µM | 0.0951 µM |  | 0.025 µM | 0.288 µM |  |  |  |  |
| C=CCN(C(C)=O)c1cc(OCc2ccccc2)c2c(c1)c(C)cn2S(=O)(=O)c1ccccc1 | > 22 µM | > 100 µM | > 100 µM | > 100 µM | > 100 µM | > 100 µM | > 100 µM | > 78.4 µM | > 55.3 µM | > 31.1 µM |  |  |  |  |
| Cc1ccc([N+](=O)[O-])cc1S(=O)(=O)Nc1ccc(C2=NN(S(=O)(=O)c3cc([N+](=O)[O-])ccc3C)C(c3ccccc3O)C2)cc1 (stereo unspecified) | > 100 µM | > 100 µM | > 100 µM | > 100 µM | > 100 µM | > 100 µM | > 100 µM | > 100 µM | > 100 µM | > 100 µM |  |  |  |  |
| O=c1[nH]nc(-c2cccc([N+](=O)[O-])c2)[nH]1 | > 100 µM | > 100 µM | > 100 µM | > 100 µM | > 100 µM | > 100 µM | > 100 µM | > 100 µM | > 100 µM | > 100 µM |  |  |  |  |
| CC(C)C1OC(=O)C(Cc2ccccc2)N(C)C(=O)C(C(C)C)OC(=O)C(Cc2ccccc2)N(C)C(=O)C(C(C)C)OC(=O)C(Cc2ccccc2)N(C)C1=O (stereo unspecified) | 2.33 µM | 2.44 µM | 1.99 µM | 2.41 µM | 2.36 µM | 2 µM | 1.97 µM | 1.91 µM | 2.12 µM | 2.72 µM |  |  |  |  |
| CCC(C)C(NC(=O)c1cccc2c(=O)c3ccccc3[nH]c12)C(=O)O (stereo unspecified) | > 100 µM | > 100 µM |  | > 100 µM | > 100 µM |  | > 100 µM | > 100 µM | > 100 µM | > 100 µM |  |  |  |  |
| CC/C(CC(=O)CCC(=O)Nc1ccc(C)c(C)c1)=N\NC(=O)c1cc2ccccc2cc1O | > 100 µM | > 100 µM | 43.2 µM | 46.9 µM | > 100 µM | > 100 µM | > 100 µM |  |  | > 100 µM |  |  |  |  |
| CC(C)C(Sc1nc(N)nc2nc[nH]c12)C(=O)O (stereo unspecified) |  | > 100 µM | > 100 µM | > 100 µM | > 100 µM | > 100 µM | > 100 µM | > 100 µM | > 100 µM | > 100 µM |  |  |  |  |
| Cc1c2ccncc2c(C)c2c1[nH]c1ccc(O)cc12 | 0.0671 µg/mL | 0.831 µg/mL | 1.63 µg/mL |  |  | 1.12 µg/mL |  |  | 0.172 µg/mL | 1.08 µg/mL | 0.239 µg/mL (≈ 0.909 µM) | 0.261 µg/mL (≈ 0.996 µM) | 0.137 µg/mL (≈ 0.522 µM) | 0.267 µg/mL (≈ 1.02 µM) |
| CC(=O)CC(O)(C(F)(F)Cl)C(F)(Cl)Cl (stereo unspecified) |  |  | > 10 µM | > 10 µM | > 10 µM | > 10 µM | > 10 µM | > 10 µM | > 10 µM | > 10 µM |  |  |  |  |
| CC1(C)OCC(/C=C\C(O)CC2(C)OCCO2)CO1 (stereo unspecified) | > 100 µM | > 100 µM | > 100 µM | > 100 µM | > 100 µM | > 100 µM | > 100 µM | > 100 µM | > 100 µM | > 100 µM |  |  |  |  |
